28 compounds from patent US8557816B2, “Aurora kinase modulators and method of use” (Amgen Inc., priority 2007, dated 2013) can be followed below.

SMILES strings stand for the structures.

One assay deals with T1, AuroraB (Homo sapiens, UniProt Q96GD4).
T1 construct: 20 μL of AuroraB FL H is for a final volume of 41 μL; His
The assay is described as follows: AuroraB Homogeneous Time Resolved Fluorescent (HTRF) kinase assay. The class given is biochemical. To be noted: average; read-out: AurB_IC50_IP (uM Avg). An outline of the steps:
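Read-out is time-resolved FRET between europium anti-phospho-H3 antibody and streptavidin-APC, added in EDTA buffer to stop the reaction and equilibrated about 60 min (ex 320, em 615 and 655 nm). Preceding reaction: ~90 min, full-length enzyme, ATP, 0.1 μM biotin-Histone H3 substrate, Mg/Mn HEPES buffer pH 7.5.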
For orientation: In TR-FRET formats the signal depends on donor and acceptor labels being close together.

The next assay deals with T2, AuroraA-TPX2 (Homo sapiens, UniProt O14965).
T2 construct: 20 μL of AuroraA-TPX2 KD GST for a final volume of about 41 μL; GST
T2 sequence (O14965 133-383 limits assumed): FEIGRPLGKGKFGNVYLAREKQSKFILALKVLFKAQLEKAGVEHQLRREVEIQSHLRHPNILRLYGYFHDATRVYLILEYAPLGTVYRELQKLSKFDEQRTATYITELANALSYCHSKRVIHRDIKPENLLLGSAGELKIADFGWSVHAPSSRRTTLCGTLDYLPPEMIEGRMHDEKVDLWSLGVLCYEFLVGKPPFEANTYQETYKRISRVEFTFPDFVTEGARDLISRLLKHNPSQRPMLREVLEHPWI
T2 sequence (Q9ULW0 1-43 partner limits assumed): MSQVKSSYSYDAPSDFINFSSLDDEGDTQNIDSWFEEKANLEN
The assay is described as follows: AuroraA-TPX2 Homogeneous Time Resolved Fluorescent (HTRF) kinase assay. The class given is biochemical. To be noted: average; read-out: AurA_IC50_IP (uM Avg). In a few lines: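 HTRF read-out (Eu 615 nm to APC 655 nm) of phosphorylated biotin-PLK, detected with 0.02 nM europium anti-phosphoPLK antibody and 0.0005 mg/mL SA-APC after overnight equilibration.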

T1 sequence (Q96GD4 whole entry): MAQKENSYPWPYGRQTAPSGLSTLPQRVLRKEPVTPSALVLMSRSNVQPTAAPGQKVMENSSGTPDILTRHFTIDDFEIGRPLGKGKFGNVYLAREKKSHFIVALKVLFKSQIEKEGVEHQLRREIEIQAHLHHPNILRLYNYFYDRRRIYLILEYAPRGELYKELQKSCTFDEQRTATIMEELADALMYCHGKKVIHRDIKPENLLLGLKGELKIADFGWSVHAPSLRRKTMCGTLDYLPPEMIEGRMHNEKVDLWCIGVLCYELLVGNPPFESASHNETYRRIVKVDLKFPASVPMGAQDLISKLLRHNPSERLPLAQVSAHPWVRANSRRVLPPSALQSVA

Regarding `COc1cnc2c(Oc3ccc(Nc4nnc(-c5ccccc5)c5ccccc45)cc3F)ccnc2c1` [compound 89, N-(3-fluoro-4-((7-(methyloxy)-1,5-naphthyridin-4-yl)oxy)phenyl)-4-phenyl-1-phthalazinamine], the IC50 was 0.007 µM on AuroraB and 0.012 µM at AuroraA-TPX2.
For `COc1cc2nccc(Oc3ccc(Nc4nnc(-c5ccccc5)c5ccccc45)cc3)c2cc1OC` [compound 90, N-(4-((6,7-bis(methyloxy)-4-quinolinyl)oxy)phenyl)-4-phenyl-1-phthalazinamine], in that order: 0.025 µM and 0.019 µM.
For `COc1ccc2c(Oc3ccc(Nc4nnc(-c5ccccc5)c5ccccc45)cc3)ccnc2c1` [compound 91, N-(4-((7-(methyloxy)-4-quinolinyl)oxy)phenyl)-4-phenyl-1-phthalazinamine], in that order: 0.012 µM and 0.054 µM.
The matching figures for `COc1cnc2c(Oc3ccc(Nc4nnc(N5CCN6CCCC6C5)c5ccccc45)cc3)ccnc2c1` (centres unmarked) [compound 92, 4-(hexahydropyrrolo[1,2-a]pyrazin-2(1H)-yl)-N-(4-((7-(methyloxy)-1,5-naphthyridin-4-yl)oxy)phenyl)-1-phthalazinamine]: 0.003 µM and 0.007 µM.
Regarding `N#Cc1ccc2c(Oc3ccc(Nc4nnc(-c5cccc(O)c5)c5ccccc45)cc3)ccnc2c1` [compound 93, 4-((4-((4-(3-hydroxyphenyl)-1-phthalazinyl)amino)phenyl)oxy)-7-quinolinecarbonitrile], the values for the IC50 at AuroraB and on AuroraA-TPX2 were 0.001 µM and 0.008 µM, respectively.
As to `CN1CCN(c2nnc(Nc3ccc(Oc4ccnc5cc(C#N)ccc45)cc3)c3ccccc23)CC1` [compound 94, 4-((4-((4-(4-methyl-1-piperazinyl)-1-phthalazinyl)amino)phenyl)oxy)-7-quinolinecarbonitrile], the IC50 on AuroraB amounted to 0.001 µM; at AuroraA-TPX2 it was 0.027 µM.
For `Cc1csc(-c2nnc(Nc3ccc(Oc4ccnc5cc(C(N)=O)ccc45)cc3)c3ccccc23)n1` [compound 95, 4-((4-((4-(4-methyl-1,3-thiazol-2-yl)-1-phthalazinyl)amino)phenyl)oxy)-7-quinolinecarboxamide], in that order: 0.002 µM and 0.027 µM.
For `COc1cc2nccc(Oc3ccc(Nc4nnc(-c5ccccc5)c5ccccc45)cc3)c2cn1` [compound 96, N-(4-((7-(methyloxy)-1,6-naphthyridin-4-yl)oxy)phenyl)-4-phenyl-1-phthalazinamine], in that order: 0.005 µM and 0.026 µM.
For `COc1cnc2c(Oc3ccc(Nc4nnc(N5CCN6CCC[C@H]6C5)c5ccccc45)cc3)ccnc2c1` [compound 97, 4-((8aS)-hexahydropyrrolo[1,2-a]pyrazin-2(1H)-yl)-N-(4-((7-(methyloxy)-1,5-naphthyridin-4-yl)oxy)phenyl)-1-phthalazinamine], in that order: 0.002 µM and 0.01 µM.
Consider `COc1cc2ncnc(Oc3ccc(Nc4nnc(-c5ccccc5)c5ccccc45)cc3)c2cc1OC` [compound 98, N-(4-((6,7-bis(methyloxy)-4-quinazolinyl)oxy)phenyl)-4-phenyl-1-phthalazinamine], for which the figures for the IC50 at AuroraB and on AuroraA-TPX2 were 0.007 µM and 0.016 µM, respectively.
The matching figures for `COc1cnc2c(Oc3ccc(Nc4nnc(-c5cccc(OC)n5)c5ccccc45)cc3)ccnc2c1` [compound 99, N-(4-((7-(methyloxy)-1,5-naphthyridin-4-yl)oxy)phenyl)-4-(6-(methyloxy)-2-pyridinyl)-1-phthalazinamine]: 0.002 µM and 0.01 µM.
The matching figures for `COc1ccc2c(Oc3ccc(Nc4nnc(-c5cccc(OC)n5)c5ccccc45)cc3)ccnc2c1` [compound 100, 4-(6-(methyloxy)-2-pyridinyl)-N-(4-((7-(methyloxy)-4-quinolinyl)oxy)phenyl)-1-phthalazinamine]: 0.006 µM and 0.038 µM.
For `COc1cccc(-c2nnc(Nc3ccc(Oc4ccnc5cc(OC)c(OC)cc45)cc3)c3ccccc23)n1` [compound 101, N-(4-((6,7-bis(methyloxy)-4-quinolinyl)oxy)phenyl)-4-(6-(methyloxy)-2-pyridinyl)-1-phthalazinamine], in that order: 0.01 µM and 0.01 µM.
On to `COc1cccc(-c2nnc(Nc3ccc(Oc4ccnc5cc(C#N)ccc45)cc3)c3ccccc23)n1` [compound 102, 4-((4-((4-(6-(methyloxy)-2-pyridinyl)-1-phthalazinyl)amino)phenyl)oxy)-7-quinolinecarbonitrile], for which the IC50 at AuroraB is 0.003 µM; at AuroraA-TPX2 it was 0.028 µM.
The matching figures for `COc1cc2nccc(Oc3ccc(Nc4nnc(-c5ccc(C)cn5)c5ccccc45)cc3)c2cn1` [compound 103, N-(4-((7-(methyloxy)-1,6-naphthyridin-4-yl)oxy)phenyl)-4-(5-methyl-2-pyridinyl)-1-phthalazinamine]: 0.004 µM and 0.035 µM.
On to `COc1cc2nccc(Sc3ccc(Nc4nnc(-c5ccccc5)c5ccccc45)cc3)c2cc1OC` [compound 104, N-(4-((6,7-bis(methyloxy)-4-quinolinyl)thio)phenyl)-4-phenyl-1-phthalazinamine], for which the IC50 on AuroraB worked out at 0.042 µM; at AuroraA-TPX2, 0.036 µM.
For `N#Cc1ccc2c(Oc3ccc(Nc4nnc(-c5ccccc5)c5ccccc45)cc3)ccnc2c1` [compound 105, 4-((4-((4-phenyl-1-phthalazinyl)amino)phenyl)oxy)-7-quinolinecarbonitrile], in that order: 0.003 µM and 0.039 µM.
For `COc1cc2nccc(Oc3ccc(Nc4nnc(-c5ccc(C(C)(C)C)cc5)c5ccccc45)cc3)c2cc1OC` [compound 106, N-(4-((6,7-bis(methyloxy)-4-quinolinyl)oxy)phenyl)-4-(4-(1,1-dimethylethyl)phenyl)-1-phthalazinamine], in that order: 0.038 µM and 0.01 µM.
For `COc1cnc2c(Oc3ccc(Nc4nnc(-c5ccccc5)cc4C)cc3)ccnc2c1` [compound 107, 4-methyl-N-(4-((7-(methyloxy)-1,5-naphthyridin-4-yl)oxy)phenyl)-6-phenyl-3-pyridazinamine], in that order: 0.005 µM and 0.018 µM.
`CCc1cc(-c2ccccc2)nnc1Nc1ccc(Oc2ccnc3cc(OC)cnc23)cc1` [compound 108, 4-ethyl-N-(4-((7-(methyloxy)-1,5-naphthyridin-4-yl)oxy)phenyl)-6-phenyl-3-pyridazinamine]: the IC50 is 0.004 µM on AuroraB and 0.016 µM at AuroraA-TPX2.
For `COc1cc2nccc(Oc3ccc(Nc4nnc(N5CCN(C)CC5)c5ccccc45)cc3)c2cn1` [compound 109, N-(4-((7-(methyloxy)-1,6-naphthyridin-4-yl)oxy)phenyl)-4-(4-methyl-1-piperazinyl)-1-phthalazinamine], in that order: 0.001 µM and 0.06 µM.
With `COc1cc2nccc(Oc3ccc(Nc4nnc(-c5cccc(C)n5)c5ccccc45)cc3)c2cn1` [compound 110, N-(4-((7-(methyloxy)-1,6-naphthyridin-4-yl)oxy)phenyl)-4-(6-methyl-2-pyridinyl)-1-phthalazinamine], the IC50 on AuroraB stood at 0.002 µM; on AuroraA-TPX2 it was 0.043 µM.
For `COc1cnc2c(Oc3ccc(Nc4nnc(-c5cccc(C)n5)c5ccccc45)cc3)ccnc2c1` [compound 111, N-(4-((7-(methyloxy)-1,5-naphthyridin-4-yl)oxy)phenyl)-4-(6-methyl-2-pyridinyl)-1-phthalazinamine], in that order: 0.005 µM and 0.04 µM.
The matching figures for `COc1cc2nccc(Oc3ccc(Nc4nnc(-c5cccc(CO)n5)c5ccccc45)cc3)c2cc1OC` [compound 112, (6-(4-((4-((6,7-bis(methyloxy)-4-quinolinyl)oxy)phenyl)amino)-1-phthalazinyl)-2-pyridinyl)methanol]: 0.003 µM and 0.015 µM.
For `COc1cc2nccc(Oc3ccc(Nc4nnc(-c5cccc(COC(C)=O)n5)c5ccccc45)cc3)c2cc1OC` [compound 113, (6-(4-((4-((6,7-bis(methyloxy)-4-quinolinyl)oxy)phenyl)amino)-1-phthalazinyl)-2-pyridinyl)methyl acetate], in that order: 0.011 µM and 0.014 µM.
For the compound `COc1cnc2c(Oc3ccc(Nc4nnc(-c5cccc(CO)n5)c5ccccc45)cc3)ccnc2c1` [compound 114, (6-(4-((4-((7-(methyloxy)-1,5-naphthyridin-4-yl)oxy)phenyl)amino)-1-phthalazinyl)-2-pyridinyl)methanol], the IC50 worked out at 0.005 µM at AuroraB and 0.036 µM at AuroraA-TPX2.
The matching figures for `Fc1cc(Nc2nnc(-c3ccccc3)c3ccccc23)ccc1Oc1ccnc2ccccc12` [compound 115, N-(3-fluoro-4-(4-quinolinyloxy)phenyl)-4-phenyl-1-phthalazinamine]: 0.006 µM and 0.163 µM.
The matching figures for `COc1cnc2c(Oc3ccc(Nc4nnc(-c5cc(C)ccn5)c5ccccc45)cc3)ccnc2c1` [compound 116, N-(4-((7-(methyloxy)-1,5-naphthyridin-4-yl)oxy)phenyl)-4-(4-methyl-2-pyridinyl)-1-phthalazinamine]: 0.011 µM and 0.062 µM.
